Assay results as given in US10988477B2 (Merck Patent GmbH, priority 2018, dated 2021).
Structures can show the parent of a compound that is named as a salt.

How the values were obtained:
GCN2 kinase = GCN2 kinase (Homo sapiens, UniProt Q9P2K8); assay: GCN2 enzyme inhibition assay (Transcreener ADP2 fluorescence polarization); assay type: biochemical; settings: compounds of Formula II; 280 μM ATP, 4 nM GCN2 kinase
Method in brief: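 Human GCN2 (4 nM) preincubated 10 min with compound (0–8 μM) and 200 μM (RS)7 peptide in Tris-HCl pH 7.5, NaCl, MgCl2, DTT. Reaction started with 280 μM ATP, run 1 h at 25 °C. ADP detected by Transcreener fluorescence polarization. IC50 and Ki(app) fitted by tight-binding algorithm.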

[1] = target: intracellular GCN2 (phosphorylation of the GCN2 substrate eIF2α) (Homo sapiens, UniProt Q9P2K8); assay: GCN2 cellular inhibition assay (AlphaScreen SureFire P-eIF2α Ser51, borrelidin-treated U2OS cells); assay type: cell-based; settings: compounds of Formula II; biomarker assay, phosphorylated eIF2α Ser51 in borrelidin-treated U2OS cells
Chain of intracellular GCN2 (phosphorylation of the GCN2 substrate eIF2α) (Q9P2K8 whole entry): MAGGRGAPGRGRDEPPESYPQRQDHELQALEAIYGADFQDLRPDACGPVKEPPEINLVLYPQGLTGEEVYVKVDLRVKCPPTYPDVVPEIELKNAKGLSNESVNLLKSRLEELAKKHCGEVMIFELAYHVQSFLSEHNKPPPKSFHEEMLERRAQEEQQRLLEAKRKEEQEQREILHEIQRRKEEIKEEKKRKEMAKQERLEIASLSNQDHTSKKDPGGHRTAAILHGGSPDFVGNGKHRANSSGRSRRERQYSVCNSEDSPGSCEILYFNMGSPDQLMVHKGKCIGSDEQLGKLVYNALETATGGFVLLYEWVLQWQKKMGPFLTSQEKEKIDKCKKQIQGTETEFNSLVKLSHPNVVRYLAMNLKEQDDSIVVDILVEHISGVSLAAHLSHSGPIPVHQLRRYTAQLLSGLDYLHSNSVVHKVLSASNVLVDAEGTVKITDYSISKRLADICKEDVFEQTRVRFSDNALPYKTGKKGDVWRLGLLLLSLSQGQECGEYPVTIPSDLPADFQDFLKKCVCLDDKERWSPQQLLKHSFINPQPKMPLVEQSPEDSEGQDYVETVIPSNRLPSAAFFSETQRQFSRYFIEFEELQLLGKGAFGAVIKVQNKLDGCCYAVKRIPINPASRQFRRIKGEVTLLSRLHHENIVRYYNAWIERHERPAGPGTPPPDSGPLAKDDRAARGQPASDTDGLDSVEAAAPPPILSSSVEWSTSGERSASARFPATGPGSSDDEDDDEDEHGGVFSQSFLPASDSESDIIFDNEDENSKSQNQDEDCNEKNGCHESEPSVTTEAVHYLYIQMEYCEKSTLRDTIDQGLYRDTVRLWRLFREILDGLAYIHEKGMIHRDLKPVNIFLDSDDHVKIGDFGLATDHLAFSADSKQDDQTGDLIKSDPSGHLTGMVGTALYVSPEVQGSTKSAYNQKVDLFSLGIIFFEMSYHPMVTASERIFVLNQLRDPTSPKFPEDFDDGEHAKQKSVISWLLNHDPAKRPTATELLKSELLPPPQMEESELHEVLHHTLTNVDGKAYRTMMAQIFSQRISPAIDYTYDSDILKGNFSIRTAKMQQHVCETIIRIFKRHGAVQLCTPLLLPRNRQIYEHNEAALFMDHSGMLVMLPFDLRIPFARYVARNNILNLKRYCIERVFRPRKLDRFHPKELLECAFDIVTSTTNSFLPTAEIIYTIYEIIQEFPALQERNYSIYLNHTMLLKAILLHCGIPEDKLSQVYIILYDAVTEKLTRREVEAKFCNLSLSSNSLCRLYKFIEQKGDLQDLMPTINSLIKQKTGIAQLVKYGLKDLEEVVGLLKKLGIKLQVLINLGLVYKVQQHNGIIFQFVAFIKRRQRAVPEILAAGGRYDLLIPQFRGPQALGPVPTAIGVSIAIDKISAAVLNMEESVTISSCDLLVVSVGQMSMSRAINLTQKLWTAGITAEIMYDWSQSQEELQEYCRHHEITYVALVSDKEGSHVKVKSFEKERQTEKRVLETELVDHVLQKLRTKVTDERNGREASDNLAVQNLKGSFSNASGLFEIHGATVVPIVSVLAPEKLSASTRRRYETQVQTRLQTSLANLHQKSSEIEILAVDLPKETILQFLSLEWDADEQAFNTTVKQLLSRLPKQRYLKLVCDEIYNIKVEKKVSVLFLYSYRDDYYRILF
Method in brief: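 U2OS cells, adhered overnight, received compounds in 4-fold serial dilutions from 40 μM final, then 10 μM borrelidin for 1 h at 37 °C. Lysates were read by AlphaScreen for phospho-eIF2α Ser51; percent inhibition was set against borrelidin-only wells.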

Chain of GCN2 kinase (Q9P2K8 whole entry): as above

Ki (GCN2 kinase) [nM] | IC50 [1] [nM] | Compound
10 to 1000 | > 5000 | FC(F)c1ccc2ncc(-c3cc(N4CCC(c5c[nH]cn5)C4)ncn3)n2n1 (stereo not shown) [II-203, 3-(6-(3-(1H-imidazol-4-yl)pyrrolidin-1-yl)pyrimidin-4-yl)-6-(difluoromethyl)imidazo[1,2-b]pyridazine]
10 to 1000 | > 5000 | COc1ccc2ncc(-c3ccnc(N4CCN(C(C)=O)CC4)c3)n2n1 [II-204, 1-(4-(4-(6-Methoxyimidazo[1,2-b]pyridazin-3-yl)pyridin-2-yl)piperazin-1-yl)ethan-1-one trifluoroacetate]
10 to 1000 | 500 to 5000 | NC(=O)c1cc(C2CCCN(c3cc(-c4cnc5ccc(C(F)F)nn45)ncn3)C2)n[nH]1 (stereo not shown) [II-205, 3-(1-(6-(6-(Difluoromethyl)imidazo[12-b]pyridazin-3-yl)pyrimidin-4-yl)piperidin-3-yl)-1H-pyrazole-5-carboxamide]
10 to 1000 | > 5000 | CS(=O)(=O)N1CCN(C(=O)C2CCCN(c3cc(-c4cnc5ccc(C(F)F)nn45)ncn3)C2)CC1 (stereo not shown) [II-206, (1-(6-(6-(Difluoromethyl)imidazo[1,2-b]pyridazin-3-yl)pyrimidin-4-yl)piperidin-3-yl)(4-(methylsulfonyl)piperazin-1-yl)methanone]
10 to 1000 | > 5000 | O=C1CCCC2CN(c3cc(-c4cnc5ccc(Cl)nn45)ccn3)CCN12 (stereo not shown) [II-207, 2-(4-(6-Chloroimidazo[1,2-b]pyridazin-3-yl)pyridin-2-yl)hexahydro-1H-pyrido[1,2-a]pyrazin-6(2H)-one]
10 to 1000 | > 5000 | CC(=O)N1CCN(c2cc(-c3cnc4ccc(Cl)nn34)ccn2)CC1 [II-208, 1-(4-(4-(6-Chloroimidazo[1,2-b]pyridazin-3-yl)pyridin-2-yl)piperazin-1-yl)ethanone]
10 to 1000 | > 5000 | COCC(=O)NCCC1CCCN(c2cc(-c3cnc4ccc(C(F)F)nn34)ncn2)C1 (stereo not shown) [II-209, N-(2-(1-(6-(6-(Difluoromethyl)imidazo[1,2-b]pyridazin-3-yl)pyrimidin-4-yl)piperidin-3-yl)ethyl)-2-methoxyacetamide]
10 to 1000 | > 5000 | NC(=O)C1COCCN(c2cc(-c3cnc4ccc(C(F)F)nn34)ncn2)C1 (stereo not shown) [II-210, 4-(6-(6-(Difluoromethyl)imidazo[1,2-b]pyridazin-3-yl)pyrimidin-4-yl)-1,4-oxazepane-6-carboxamide]
10 to 1000 | 500 to 5000 | O=C1CCC2(CCN(c3cc(-c4cnc5ccc(C(F)F)nn45)ncn3)CC2)CN1 [II-211, 9-(6-(6-(Difluoromethyl)imidazo[1,2-b]pyridazin-3-yl)pyrimidin-4-yl)-2,9-diazaspiro[5.5]undecan-3-one]
10 to 1000 | 500 to 5000 | NC(=O)CCC1CCN(c2cc(-c3cnc4ccc(C(F)F)nn34)ncn2)CC1 [II-212, 3-(1-(6-(6-(Difluoromethyl)imidazo[1,2-b]pyridazin-3-yl)pyrimidin-4-yl)piperidin-4-yl)propanamide]
< 10 | 500 to 5000 | CC1(C)CN(c2cc(-c3cnc4ccc(C(F)F)nn34)ncn2)CC1CNS(C)(=O)=O (stereo not shown) [II-213, N-((1-(6-(6-(Difluoromethyl)imidazo[1,2-b]pyridazin-3-yl)pyrimidin-4-yl)-4,4-dimethylpyrrolidin-3-yl)methyl)methanesulfonamide]
10 to 1000 | 500 to 5000 | NC(=O)CCC1CCCN(c2cc(-c3cnc4ccc(C(F)F)nn34)ncn2)C1 (stereo not shown) [II-214, 3-(1-(6-(6-(Difluoromethyl)imidazo[1,2-b]pyridazin-3-yl)pyrimidin-4-yl)piperidin-3-yl)propanamide]
10 to 1000 | 500 to 5000 | NC(=O)NCC1CCCN(c2cc(-c3cnc4ccc(C(F)F)nn34)ncn2)C1 (stereo not shown) [II-215, 1-((1-(6-(6-(Difluoromethyl)imidazo[1,2-b]pyridazin-3-yl)pyrimidin-4-yl)piperidin-3-yl)methyl)urea]
10 to 1000 | > 5000 | O=C(NC1CC1)NC1CCN(c2cc(-c3cnc4ccc(C(F)F)nn34)ncn2)C1 (stereo not shown) [II-216, 1-Cyclopropyl-3-(1-(6-(6-(difluoromethyl)imidazo[1,2-b]pyridazin-3-yl)pyrimidin-4-yl)pyrrolidin-3-yl)urea]
10 to 1000 | 500 to 5000 | FC(F)c1ccc2ncc(-c3cc(N4CCC(Cc5ccn[nH]5)CC4)ncn3)n2n1 [II-217, 3-(6-(4-((1H-Pyrazol-5-yl)methyl)piperidin-1-yl)pyrimidin-4-yl)-6-(difluoromethyl)imidazo[1,2-b]pyridazine]
10 to 1000 | 500 to 5000 | CC(=O)Nc1cccc2c1CCN(c1cc(-c3cnc4ccc(C(F)F)nn34)ncn1)C2 [II-218, N-(2-(6-(6-(Difluoromethyl)imidazo[1,2-b]pyridazin-3-yl)pyrimidin-4-yl)-1,2,3,4-tetrahydroisoquinolin-5-yl)acetamide]
< 10 | < 500 | NS(=O)(=O)CC1CCCN(c2cc(-c3cnc4ccc(C(F)F)nn34)ncn2)C1 (stereo not shown) [II-219, (1-(6-(6-(Difluoromethyl)imidazo[1,2-b]pyridazin-3-yl)pyrimidin-4-yl)piperidin-3-yl)methanesulfonamide]
< 10 | < 500 | CC1C(CNS(C)(=O)=O)CCCN1c1cc(-c2cnc3ccc(C(F)F)nn23)ncn1 (stereo not shown) [II-221, N-((1-(6-(6-(Difluoromethyl)imidazo[1,2-b]pyridazin-3-yl)pyrimidin-4-yl)-2-methylpiperidin-3-yl)methyl)methanesulfonamide]
10 to 1000 | 500 to 5000 | CC(=O)N1CCCC(c2cc(-c3cnc4ccc(C(F)F)nn34)ncn2)C1 (stereo not shown) [II-222, 1-(3-(6-(6-(Difluoromethyl)imidazo[12-b]pyridazin-3-yl)pyrimidin-4-yl)piperidin-1-yl)ethan-1-one]

The next lines start with the compound.

Compound | Ki (GCN2 kinase) [nM] | IC50 [1] [nM]
NC(=O)[C@H]1CCCN(c2cc(-c3cnc4ccc(Cl)nn34)ccn2)C1 [II-189, (S)-1-(4-(6-Chloroimidazo[1,2-b]pyridazin-3-yl)pyridin-2-yl)piperidine-3-carboxamide] | 10 to 1000 | 500 to 5000
O=C(NCCO)C1CCCN(c2cc(-c3cnc4ccc(C(F)F)nn34)ncn2)C1 (stereo not shown) [II-191, 1-(6-(6-(Difluoromethyl)imidazo[1,2-b]pyridazin-3-yl)pyrimidin-4-yl)-N-(2-hydroxyethyl)piperidine-3-carboxamide] | 10 to 1000 | > 5000
NS(=O)(=O)C1CCN(c2cc(-c3cnc4ccc(C(F)F)nn34)ncn2)C1 (stereo not shown) [II-192, 1-(6-(6-(Difluoromethyl)imidazo[1,2-b]pyridazin-3-yl)pyrimidin-4-yl)pyrrolidine-3-sulfonamide] | 10 to 1000 | > 5000
CC(=O)N1CCN(c2cc(-c3cnc4ccc(C)nn34)ccn2)CC1 [II-193, 1-(4-(4-(6-Methylimidazo[1,2-b]pyridazin-3-yl)pyridin-2-yl)piperazin-1-yl)ethanone] | 10 to 1000 | > 5000
Clc1ccc2ncc(-c3ccnc(N4CCOCC4)c3)n2n1 [II-194, 4-(4-(6-Chloroimidazo[1,2-b]pyridazin-3-yl)pyridin-2-yl)morpholine] | 10 to 1000 | > 5000
CN1CCN(c2cc(-c3cnc4ccc(Cl)nn34)ccn2)CC1 [II-195, 6-Chloro-3-(2-(4-methylpiperazin-1-yl)pyridin-4-yl)imidazo[1,2-b]pyridazine] | 10 to 1000 | > 5000
CCc1ccc2ncc(-c3cc(N4CCO[C@H](CNS(C)(=O)=O)C4)ncn3)n2n1 [II-196, (S)—N-((4-(6-(6-Ethylimidazo[1,2-b]pyridazin-3-yl)pyrimidin-4-yl)morpholin-2-yl)methyl)methanesulfonamide] | 10 to 1000 | > 5000
C[C@@H]1CO[C@H](CNS(C)(=O)=O)CN1c1cc(-c2cnc3ccc(C(F)F)nn23)ncn1 [II-197, N-(((2S,5R)-4-(6-(6-(Difluoromethyl)imidazo[1,2-b]pyridazin-3-yl)pyrimidin-4-yl)-5-methylmorpholin-2-yl)methyl)methanesulfonamide] | < 10 | < 500
COC1CC(CNS(C)(=O)=O)CN(c2cc(-c3cnc4ccc(C(F)F)nn34)ncn2)C1 (stereo not shown) [II-198, N-((1-(6-(6-(Difluoromethyl)imidazo[1,2-b]pyridazin-3-yl)pyrimidin-4-yl)-5-methoxypiperidin-3-yl)methyl)methanesulfonamide] | 10 to 1000 | > 5000
CS(=O)(=O)NC1CCN(c2cc(-c3cnc4ccc(C(F)F)nn34)ncn2)C1 (stereo not shown) [II-199, N-(1-(6-(6-(Difluoromethyl)imidazo[1,2-b]pyridazin-3-yl)pyrimidin-4-yl)pyrrolidin-3-yl)methanesulfonamide] | 10 to 1000 | > 5000
O=C1NCC2CCN(c3cc(-c4cnc5ccc(C(F)F)nn45)ncn3)CC12 (stereo not shown) [II-200, 5-(6-(6-(Difluoromethyl)imidazo[1,2-b]pyridazin-3-yl)pyrimidin-4-yl)octahydro-3H-pyrrolo[3,4-c]pyridin-3-one] | 10 to 1000 | > 5000
C[C@@H]1CN(c2cc(-c3cnc4ccc(C(F)F)nn34)ncn2)CC(C(N)=O)O1 (stereo partly drawn) [II-201, (6R)-4-(6-(6-(Difluoromethyl)imidazo[1,2-b]pyridazin-3-yl)pyrimidin-4-yl)-6-methylmorpholine-2-carboxamide] | 10 to 1000 | > 5000
NS(=O)(=O)NCC1CCCN(c2cc(-c3cnc4ccc(C(F)F)nn34)ncn2)C1 (stereo not shown) [II-202, 1-((1-(6-(6-(Difluoromethyl)imidazo[1,2-b]pyridazin-3-yl)pyrimidin-4-yl)piperidin-3-yl)methyl)sulfuric diamide] | < 10 | < 500
